Assay results as given in US20250270173A1, “PYRIDINE DERIVATIVES FOR TREATING PSYCHIATRIC DISORDERS” (GILGAMESH PHARMACEUTICALS, INC., priority 2022, published 2025).
Values joined by “and” are separate entries in the source; they are usually repeats but may differ in a detail not shown here. Equal values may be shown once. Read-outs that look alike come from different tables or passages of the source.

How the values were obtained:
5-HT2A receptor [1] = molecular target: T1, 5-HT2A receptor (Homo sapiens (Human), UniProt P28223); experiment: 5-HT2A receptor radioligand binding with [3H]ketanserin; conditions: read-out: Ki at 5-HT2A Receptor (nM) ([3H]ketanserin); HEK293 stable cell line, 1 nM [3H]ketanserin, 1 h, 25 °C
5-HT1A receptor = 5-HT1A receptor (Homo sapiens (Human), UniProt P08908); experiment: FLIPR Ca2+ flux functional assay at 5-HT1A (CHO cells); conditions: for 5-HT1A % Act @ Max Conc.: at max concentration
5-HT2A receptor [2] = molecular target: T1, 5-HT2A receptor; experiment: FLIPR Ca2+ flux functional assay at 5-HT2A (HEK293); conditions: for 5-HT2A % Act @ Max Conc.: HEK293, at max concentration
5-HT2B receptor = 5-HT2B receptor (Homo sapiens (Human), UniProt P41595); experiment: FLIPR Ca2+ flux functional assay at 5-HT2B (HEK293); conditions: for 5-HT2B % Act @ Max Conc.: HEK293, at max concentration
C57BL/6 mice [3] = experiment: Automated (video tracking) head twitch response (HTR) assay in mice; format: in vivo; conditions: SC; for ED50: 20 min recording; for Most Efficacious Dose; mg/kg: dose giving the most HTR
Method: Disclosed compounds were tested for their ability to induce a head twitch response (HTR) in mice using an automated video tracking procedure, with the results summarized in Table 5. […] The phenyl Compound 44 was substantially more efficacious at inducing HTR than its pyridine counterpart Compound 29, in agreement with the generally lower maximal efficacy of the disclosed pyridine compounds for signaling through 5-HT2A receptors.
(§1) Animals. Adult male C57BL/6 mice aged 8-10 weeks (body weight 20-25 g) were used in these experiments. Animals were housed under controlled temperatures and 12-hour light/dark cycles (lights on between 07:00-19:00 h), with ad libitum food and water. The protocol was approved by the Institutional Animal Care and Use Committee at the study site. This study was carried out in strict accordance with the recommendations in the Guide for the Care and Use of Laboratory Animals of the National Institutes of Health. All efforts were made to minimize suffering.
Drugs and Drug Administration. […] was commercially obtained. Disclosed compounds were synthesized as described above. They were administered subcutaneously (SC) dissolved in saline (or saline acidified with 1-2 molar equivalents HCl to form the salt in situ for freebase compounds) at a volume of 10 mL/kg. Five doses were tested, with N=5-8 animals/group. Doses were calculated on the basis of the freebase, except for DOI, which was calculated based on the HCl salt.
Procedure. Mice were administered one dose of the drug and immediately placed into a small open field for behavioral observation. High-speed video of animals' behavior was captured continuously for 20 min. Video recordings were imported into an image processing software, which detects multiple points of interest on each animal's body, including the left and right ear. HTR events were defined as periodic deviations of ear locations from temporally averaged ear locations. Predefined thresholds for magnitude and frequency of location deviations were used to filter […] events from random head movements. The method was validated by comparing detected events with manual (human) observations and found to have an accuracy >95%. The total number of HTR events counted during the 20-min recording were determined for each animal at each dose.
(§2) Statistical Analysis. Analysis was performed using GraphPad Prism 9. Dose-response curves were fit via non-linear regression using the Gaussian 2020 function in Prism in order to determine the ED50 and Emax for each compound.

C57BL/6 mice [4] = experiment: Manual head twitch response (HTR) assay in mice; format: in vivo; conditions: SC; for ED50: 20 min observation
Method: Agonists of the 5-HT2A receptor are well known to induce this effect in rodents and the potency of this HTR is correlated with hallucinogenic potency in humans.
as §1
Drugs and Drug administration. DOI was commercially obtained. All other compounds were synthesized as described above. All drugs were administered subcutaneously (SC) dissolved in saline vehicle (or saline acidified with 1-2 molar equivalents HCl to form the salt in situ for freebase compounds) and at a volume of 10 mL/kg. Drugs were administered at 4 or 5 doses per compound, using n=6 animals/group. Doses were calculated on the basis of the freebase form, except for DOT, which was calculated based on the HCl salt.
Procedure. Mice were administered one dose of the drug (or vehicle) SC and immediately placed into a small open field for behavioral observation. Animals were observed continuously for 20 mins and the number of head twitches (HTs) were counted by an observer blind to the treatment condition.
as §2

human 5-HT2C receptor = human 5-HT2C receptor (Homo sapiens (Human), UniProt P28335); experiment: FLIPR Ca2+ flux functional assay at 5-HT2C (Eurofins DiscoverX); format: cell-based; conditions: Ca2+ flux, human 5-HT2C; for 5-HT2C % Act @ Max Conc.: at max concentration; for EC50: read-out: 5-HT2C EC50
Method: Functional Assays at 5-HT2C Receptors. […] Probenecid was prepared fresh. Cells were loaded with dye prior to testing and incubated at 37° C. for 30-60 minutes. After dye loading, cells were removed from the incubator and 10 μL HBSS/20 mM Hepes was added. 3× vehicle was included in the assay buffer. Cells were incubated for 30 mins at room temperature in the dark to equilibrate plate temperature. Intermediate dilution of sample stocks was performed to generate 4× sample in assay buffer. Compound agonist activity was measured on a FLIPR Tetra (MDS). Calcium mobilization was monitored for 2 minutes and 10 μL 4× sample in HBSS/20 mM Hepes was added to the cells 5 seconds into the assay.

[5] = Mus musculus, 20 min, read-out: ED50
[6] = read-out: 5-HT2B EC50, Ca2+ flux, HEK293
[7] = read-out: 5-HT1A EC50, Ca2+ flux, CHO cells
[8] = read-out: 5-HT2A EC50, Ca2+ flux, HEK293

Chain of 5-HT2B receptor (P41595 whole entry, looked up): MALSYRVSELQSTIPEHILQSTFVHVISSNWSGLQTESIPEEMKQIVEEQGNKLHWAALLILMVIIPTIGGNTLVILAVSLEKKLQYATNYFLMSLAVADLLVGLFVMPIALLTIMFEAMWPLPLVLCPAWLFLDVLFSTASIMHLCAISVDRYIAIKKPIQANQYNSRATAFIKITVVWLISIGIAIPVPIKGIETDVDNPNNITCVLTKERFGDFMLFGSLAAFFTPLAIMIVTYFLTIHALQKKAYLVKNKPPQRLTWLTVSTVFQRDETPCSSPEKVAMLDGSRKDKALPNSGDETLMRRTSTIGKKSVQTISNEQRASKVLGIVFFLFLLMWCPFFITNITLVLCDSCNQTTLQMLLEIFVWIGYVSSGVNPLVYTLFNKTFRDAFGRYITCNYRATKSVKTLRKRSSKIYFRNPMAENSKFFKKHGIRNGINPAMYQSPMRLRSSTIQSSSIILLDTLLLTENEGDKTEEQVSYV
Chain of human 5-HT2C receptor (P28335 whole entry, looked up): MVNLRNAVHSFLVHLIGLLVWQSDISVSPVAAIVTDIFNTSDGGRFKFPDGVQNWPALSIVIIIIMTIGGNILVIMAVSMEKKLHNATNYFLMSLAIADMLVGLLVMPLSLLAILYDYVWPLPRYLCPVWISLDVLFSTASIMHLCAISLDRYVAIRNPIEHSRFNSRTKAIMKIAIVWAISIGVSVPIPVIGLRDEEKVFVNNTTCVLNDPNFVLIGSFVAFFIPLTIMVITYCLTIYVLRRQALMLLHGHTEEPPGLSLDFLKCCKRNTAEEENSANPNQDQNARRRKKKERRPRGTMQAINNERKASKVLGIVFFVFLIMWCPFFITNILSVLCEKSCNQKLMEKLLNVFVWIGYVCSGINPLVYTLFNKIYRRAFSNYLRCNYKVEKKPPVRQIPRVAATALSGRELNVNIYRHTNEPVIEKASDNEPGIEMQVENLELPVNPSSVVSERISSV

SMILES	Ki (5-HT2A receptor [1]) [nM]	EC50 (5-HT1A receptor) [nM]	5-HT1A % Act @ Max Conc. (5-HT1A receptor; Ca2+ flux, CHO cells) [%]	EC50 (5-HT2A receptor [2]) [nM]	5-HT2A % Act @ Max Conc. (5-HT2A receptor [2]; Ca2+ flux)	EC50 (5-HT2B receptor) [nM]	5-HT2B % Act @ Max Conc. (5-HT2B receptor; Ca2+ flux) [%]	ED50 (C57BL/6 mice [3]; [5]) [mg/kg]	Emax (HTR counts/20 min) (C57BL/6 mice [3])	# HTR/20 min at Most Efficacious Dose (C57BL/6 mice [3]) [HTR/20 min]	Most Efficacious Dose; mg/kg (C57BL/6 mice [3])	Emax (HTR counts/20 min) (C57BL/6 mice [4])	ED50 (C57BL/6 mice [4]) [mg/kg]	EC50 (5-HT2B receptor; [6]) [nM]	ED50 (C57BL/6 mice [3]) [mg/kg]	5-HT2C % Act @ Max Conc. (human 5-HT2C receptor) [%]	EC50 (human 5-HT2C receptor) [nM]	EC50 (5-HT1A receptor; [7]) [nM]	EC50 (5-HT2A receptor [2]; [8]) [nM]	ED50 (C57BL/6 mice [4]; [5]) [mg/kg]
COc1cc(CCCCCC(F)(F)F)c(OC)nc1CCN [Compound 30, 2-(3,6-dimethoxy-5-(6,6,6-trifluorohexyl)pyridin-2-yl)ethan-1-amine]	6.01	91600	55.61	65	73.21%	1670	23.14	5.87	16.80	17.5	(3.2) mg/kg	–	–	–	–	–	–	–	–	–
COc1cc(CC(C)N)c(OC)cc1I (stereo not shown) [DOI, reference compound]	–	–	−2.47	–	106%	–	86.3	–	82.02	81.5	(3.2) mg/kg	35.7	0.428	4.88	0.531	92.6	0.818	–	–	–
CCCc1cc(OC)c(CCN)nc1OC [Compound 36, 2-(3,6-dimethoxy-5-propylpyridin-2-yl)ethan-1-amine]	35.4	> 100000	3.03	4.14	88.19%	184	21.53	0.972	48.79	48.12	(10) mg/kg	–	–	–	–	–	–	–	–	–
CCC(N)Cc1nc(OC)c(Cl)cc1OC (stereo not shown) [Compound 18, 1-(5-chloro-3,6-dimethoxypyridin-2-yl)butan-2-amine]	1200	> 100000	1.33	370	70.92%	> 10000	2.75	–	–	33.12	(10) mg/kg	–	–	–	–	36.76	2250	–	–	–
COc1cc(CCCCF)c(OC)nc1CCN [Compound 32, 2-(5-(4-fluorobutyl)-3,6-dimethoxypyridin-2-yl)ethan-1-amine]	103	> 100000	0.5	20.8	81.86%	> 10000	−0.69	–	–	–	–	–	–	–	–	99.77	22.8	–	–	–
COc1cc(CCNCc2ccccc2OC)c(OC)cc1C [Compound 25D-NBOMe, 25D-NBOMe, reference compound]	2.52	–	−4.43	–	97.5%	–	43.3	–	–	–	–	–	–	1.27	–	91.5	< 0.508	> 10000	0.251	–
CCCCCCc1cc(OC)c(CC(C)N)nc1OC (stereo not shown) [Compound 38, 1-(5-hexyl-3,6-dimethoxypyridin-2-yl)propan-2-amine]	3.1	56900	123.88	11.4	83.97%	> 10000	4.76	–	–	–	–	–	–	–	–	79.49	159	–	–	–
CCCCc1cc(OC)c(CCN)nc1OC [Compound 31, 2-(5-butyl-3,6-dimethoxypyridin-2-yl)ethan-1-amine]	19.7	> 100000	21.32	7.88	90.63%	> 10000	7.29	1.29	43.42	43.38	(3.2) mg/kg	–	–	–	–	–	–	–	–	–
COc1cc(C(F)(F)F)c(OC)cc1CCN [Compound 2C-TFM, 2C-TFM, reference compound]	15.8	–	−0.647	–	81.5%	–	82.0	–	–	–	–	–	–	16.3	–	88.2	0.593	> 10000	1.05	–
CCCCCc1cc(OC)c(CCN)nc1OC [Compound 7, 2-(3,6-dimethoxy-5-pentylpyridin-2-yl)ethan-1-amine]	6.32	51900	61.95	20	82.88%	> 10000	11.56	4.88	24.61	23.25	(1) mg/kg	–	–	–	–	92.53	16.2	–	–	–
CCCCCc1cc(OC)c(CC(N)CC)nc1OC (stereo not shown) [Compound 1, 1-(3,6-dimethoxy-5-pentylpyridin-2-yl)butan-2-amine]	40	20200	188	115	25% and 25.3%	–	0.18	–	–	–	–	18.78	–	–	–	44.38	5470	–	–	0.897
